The source of these data is BindingDB's records for doi:10.1021/jm501113m (Duquesne University, 2014).

The nature of test [1]: Inhibition of FRalpha (unknown origin) expressed in Chinese hamster RT16 cells assessed as cell growth inhibition incubated up to 96 hrs by Celltiter-blue cell viability assay.
Test [2] can be described thus: Inhibition of FRbeta (unknown origin) expressed in Chinese hamster D4 cells assessed as cell growth inhibition incubated up to 96 hrs in presence of 200 nM folic acid by Celltiter-blue cell viability assay.
Test [3] can be described thus: Inhibition of RFC (unknown origin) expressed in Chinese hamster PC43-10 cells assessed as cell growth inhibition incubated up to 96 hrs by Celltiter-blue cell viability assay. On the technique in general: Alamar Blue is a resazurin reagent that responds to reducing activity.
A short description of test [4]: Inhibition of PCFT (unknown origin) expressed in Chinese hamster R2/PCFT4 cells assessed as cell growth inhibition incubated up to 96 hrs by Celltiter-blue cell viability assay.
Test [5] in a line: Inhibition of FRbeta (unknown origin) expressed in Chinese hamster D4 cells assessed as cell growth inhibition incubated up to 96 hrs by Celltiter-blue cell viability assay.
Test [6] is described as follows: Inhibition of FRalpha (unknown origin) expressed in Chinese hamster RT16 cells assessed as cell growth inhibition incubated up to 96 hrs in presence of 200 nM folic acid by Celltiter-blue cell viability assay.

Usually IC50 stands for the midpoint of a concentration-inhibition curve. Consider `Nc1nc2[nH]c(CCCc3ccc(C(=O)N[C@@H](CC(=O)O)C(=O)O)s3)cc2c(=O)[nH]1`, for which the IC50 in test [1] is 6.6 nM; in test [2] it was more than 1000 nM; in test [3], more than 1000 nM; in test [4] it was more than 1000 nM; in test [5] it was 347 nM; in test [6] it was more than 1000 nM.

In the case of `Nc1nc2[nH]c(CCCc3ccc(C(=O)NCCCC(=O)O)s3)cc2c(=O)[nH]1`, the IC50 in test [1] is 27 nM; in test [2], more than 1000 nM; in test [3], more than 1000 nM; in test [4] it was more than 1000 nM; in test [5] it was more than 1000 nM; in test [6] it was more than 1000 nM.

Take `Nc1nc2[nH]c(CCCc3ccc(C(=O)N[C@@H](CCCC(=O)O)C(=O)O)s3)cc2c(=O)[nH]1`: the IC50 was 9.5 nM in test [1]; more than 1000 nM in test [2]; more than 1000 nM in test [3]; more than 1000 nM in test [4]; 3.6 nM in test [5]; more than 1000 nM in test [6].

`Nc1nc2[nH]c(CCCc3ccc(C(=O)O)s3)cc2c(=O)[nH]1`: the IC50 in test [1] was 661 nM; in test [2], more than 1000 nM; in test [3] it was more than 1000 nM; in test [4], more than 1000 nM; in test [5] it was more than 1000 nM; in test [6], more than 1000 nM.

For the compound `CCC[C@H](NC(=O)c1ccc(CCCc2cc3c(=O)[nH]c(N)nc3[nH]2)s1)C(=O)O`, the IC50 in test [1] was 56 nM; in test [2], more than 1000 nM; in test [3], more than 1000 nM; in test [4], more than 1000 nM; in test [5], more than 1000 nM; in test [6] it was more than 1000 nM.
